Values quoted from earlier work in patent publication EP3954777A1, “METHOD FOR ENZYMATIC DEGRADATION OF BITTER COMPOUNDS IN AGRO-INDUSTRIAL BY-PRODUCTS” (SternEnzym GmbH & Co. KG, priority 2020, dated 2022).

Tested on: human test persons
Settings: bitter taste

kaempferol 3-O-(2"'-O-sinapoyl-β-sophoroside)
level that, on average, can be tasted by humans (average (Hald et al., 2019)): 3.4 µmol/L | lowest level detectable by human test persons (lowest (Hald et al., 2019)): 1.7 µmol/L
